Assay results reported in patent publication US6667335B2, “Imidazole derivatives” (Hoffmann-La Roche Inc., priority 2001, dated 2003).
pIC50: −log10 of the molar value. Structures can show the parent of a compound that is named as a salt.

Target: T1, NMDA-receptor subtype 2B (Rattus norvegicus, UniProt P35439+Q00960)
T1 construct: Membranes were prepared by homogenization of the whole brain minus cerebellum and medulla oblongata; from tissue; host or cells: rat whole brain minus cerebellum and medulla oblongata, membrane preparation
T1 sequence (Q00960 27-1482, other chains not shown): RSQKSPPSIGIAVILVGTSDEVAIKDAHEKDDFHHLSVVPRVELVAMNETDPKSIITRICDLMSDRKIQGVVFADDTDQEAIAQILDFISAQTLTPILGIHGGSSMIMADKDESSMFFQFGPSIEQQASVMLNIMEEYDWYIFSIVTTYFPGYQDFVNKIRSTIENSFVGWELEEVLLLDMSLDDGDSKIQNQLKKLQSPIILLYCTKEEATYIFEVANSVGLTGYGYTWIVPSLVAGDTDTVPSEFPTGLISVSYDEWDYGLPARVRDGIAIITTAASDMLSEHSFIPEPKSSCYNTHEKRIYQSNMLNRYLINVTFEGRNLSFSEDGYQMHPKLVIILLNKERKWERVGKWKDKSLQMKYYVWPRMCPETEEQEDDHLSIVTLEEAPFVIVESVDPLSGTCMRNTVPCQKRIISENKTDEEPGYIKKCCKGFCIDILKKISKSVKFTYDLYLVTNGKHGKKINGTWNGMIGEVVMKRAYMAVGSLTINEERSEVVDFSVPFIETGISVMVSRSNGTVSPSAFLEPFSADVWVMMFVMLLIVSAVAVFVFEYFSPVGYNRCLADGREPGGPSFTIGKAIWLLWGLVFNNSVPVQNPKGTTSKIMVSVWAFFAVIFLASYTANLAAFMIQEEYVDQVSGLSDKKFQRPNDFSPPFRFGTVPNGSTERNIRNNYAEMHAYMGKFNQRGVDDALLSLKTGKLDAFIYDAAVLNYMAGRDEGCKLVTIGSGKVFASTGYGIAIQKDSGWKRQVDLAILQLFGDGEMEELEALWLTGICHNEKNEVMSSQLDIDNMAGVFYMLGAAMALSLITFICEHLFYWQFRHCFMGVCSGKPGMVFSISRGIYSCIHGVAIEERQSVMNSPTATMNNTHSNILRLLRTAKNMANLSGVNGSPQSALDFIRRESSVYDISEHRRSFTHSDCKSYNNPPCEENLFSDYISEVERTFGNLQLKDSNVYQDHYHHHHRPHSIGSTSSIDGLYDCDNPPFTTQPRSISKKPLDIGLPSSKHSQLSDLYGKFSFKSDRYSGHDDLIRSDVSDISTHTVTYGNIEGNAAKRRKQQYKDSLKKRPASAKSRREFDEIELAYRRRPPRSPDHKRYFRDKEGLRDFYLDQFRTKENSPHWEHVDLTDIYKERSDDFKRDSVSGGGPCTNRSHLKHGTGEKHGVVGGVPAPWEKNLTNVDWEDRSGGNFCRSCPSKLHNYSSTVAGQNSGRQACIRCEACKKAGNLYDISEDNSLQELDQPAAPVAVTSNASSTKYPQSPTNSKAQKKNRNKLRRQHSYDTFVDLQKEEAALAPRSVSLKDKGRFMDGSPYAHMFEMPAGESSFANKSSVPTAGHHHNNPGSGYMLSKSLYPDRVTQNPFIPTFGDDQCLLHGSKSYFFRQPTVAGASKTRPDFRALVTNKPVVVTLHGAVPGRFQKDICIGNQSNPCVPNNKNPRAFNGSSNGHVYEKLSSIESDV
Assay: 3H-Ro 25-6981 binding (displacement) on rat brain membranes
Details: displacement of 5 nM 3H-Ro 25-6981, rat whole brain membranes (minus cerebellum and medulla oblongata), 2 hours at 4° C.
Procedure: ^3H[R-(R*,S*)]-(α-(4-Hydroxy-phenyl)-β-methyl-4-(phenyl-methyl)-1-piperidine propanol)binding
Male Füllinsdorf albino rats weighing between 150-200 g were used. Membranes were prepared by homogenization of the whole brain minus cerebellum and medulla oblongata with a Polytron (10.000 rpm, 30 seconds), in 25 volumes of a cold Tris-HCl 50 mM, EDTA 10 mM, pH 7.1 buffer. The homogenate was centrifuged at 48,000 g for 10 minutes at 4° C. The pellet was resuspended using the Polytron in the same volume of buffer and the homogenate was incubated at 37° C. for 10 minutes. After centrifugation the pellet was homogenized in the same buffer and frozen at −80° C. for at least 16 hours but not more than 10 days. For the binding assay the homogenate was thawed at 37° C., centrifuged and the pellet was washed three times as above in a Tris-HCl 5 mM, pH 7.4 cold buffer. The final pellet was resuspended in the same buffer and used at a final concentration of […]. ^3H-Ro 25-6981 binding experiments were performed using a Tris-HCl 50 mM, pH 7.4 buffer. For displacement experiments 5 nM of ^3H-Ro 25-6981 were used and non specific binding was measured using 10 mM of tetrahydroisoquinoline and usually it accounts for 10% of the total. The incubation time was 2 hours at 4° C. and the assay was stopped by filtration on Whatmann GF/B glass fiber filters (Unifilter-96, Packard, Zürich, Switzerland). The filters were washed 5 times with cold buffer. The radioactivity on the filter was counted on a Packard Top-count microplate scintillation counter after addition of […] of microscint 40 (Canberra Packard S.A., Zuirich, Switzerland).
The effects of compounds were measured using a minimum of 8 concentrations and repeated at least once.

With “1H-Imidazole, 1-(3,4-Dichlorophenyl)-4-[(4-methyl-1H-imidazol-1-yl)methyl]-, Hydrochloride (1:2) and 1H-Imidazole, 1-(3,4-Dichlorophenyl)-4-[(5-methyl-1H-imidazol-1-yl)methyl]-, Hydrochloride (1:2) (ratio 3:2) [Example 6]” as the molecule, how does the pIC50 read?
Its pIC50 is 7.35.

With “4-Imidazol-1-ylmethyl-1-(3-methylsulfanyl-phenyl)-1H-imidazole Hydrochloride (1:2) [Example 145]” as the molecule, how does the pIC50 read?
The pIC50 was 7.27.

With Cc1ccc(-n2cnc(Cn3ccnc3)c2)cc1C [Example 21] as the molecule, how does the pIC50 read?
Its pIC50 is 7.37.

With CSc1ccc(-n2cnc(Cn3ccnc3C)c2)cc1 [Example 27] as the molecule, how does the pIC50 read?
Its pIC50 is 7.57.

With Cc1cc(-n2cnc(Cn3ccnc3N)c2)ccc1Cl [Example 105, 1-[1-(4-Chloro-3-methyl-phenyl)-1H-imidazol-4-yl-methyl]-1H-imidazol-2-yl-amine-, Hydrochloride (1:2)] as the molecule, how does the pIC50 read?
Its pIC50 is 9.00.

With Cc1cc(-c2c[nH]c(Cn3ccnc3C)n2)ccc1F [Example 119, 1H-Imidazole, 1-[[4-(4-Fluoro-3-methylphenyl)-1H-imidazol-2-yl]methyl]-2-methyl-, Hydrochloride (1:2)] as the molecule, how does the pIC50 read?
The pIC50 was 7.34.

With Cc1ccc(-c2cncc(Cn3ccnc3C)c2)cc1C [Example 130, 3-(3,4-Dimethyl-phenyl)-5-(2-methyl-imidazol-1-yl-methyl)-pyridine Hydrochloride (1:1)] as the molecule, how does the pIC50 read?
Its pIC50 is 7.19.

With Cc1ccc(-c2cncc(Cn3ccnc3C)c2)cc1Cl [Example 136, 3-(3-Chloro-4-methyl-phenyl)-5-(2-methyl-imidazol-1-yl-methyl)-pyridine Hydrochloride (1:1)] as the molecule, how does the pIC50 read?
Its pIC50 is 7.10.

With Cc1nccn1Cc1cncc(-c2ccc3c(c2)CCC3)c1 [Example 139, 3-Indan-5-yl-5-(2-methyl-imidazol-1-yl-methyl)-pyridine Hydrochloride (1:1)] as the molecule, how does the pIC50 read?
Its pIC50 is 7.19.

With Cc1nccn1Cc1cncc(-c2ccc(F)c(Cl)c2)c1 [Example 140, 3-(3-Chloro-4-fluoro-phenyl)-5-(2-methyl-imidazol-1-yl-methyl)-pyridine Hydrochloride (1:1)] as the molecule, how does the pIC50 read?
Its pIC50 is 7.40.

With Cc1nccn1Cc1cncc(-c2ccc(Cl)c(C(F)(F)F)c2)c1 [Example 141, 3-(4-Chloro-3-trifluoromethyl-phenyl)-5-(-2-methyl-imidazol-1-yl-methyl)-pyridine Hydrochloride (1:1)] as the molecule, how does the pIC50 read?
The pIC50 was 7.41.

With CCc1nccn1Cc1cn(-c2cccc(SC(F)(F)F)c2)cn1 [Example 143] as the molecule, how does the pIC50 read?
Its pIC50 is 8.14.

With CCc1nccn1Cc1cn(-c2ccc(F)c(C(C)(F)F)c2)cn1 [Example 151, 1H-Imidazole, 1-[[1-1-[3-(1,1-Difluoroethyl)-4-fluorophenyl]-1H-imidazol-4-yl]methyl]-ethyl-, Hydrochloride (1:2)] as the molecule, how does the pIC50 read?
The pIC50 was 7.85.

With CCc1nccn1Cc1cn(-c2cccc(C(C)C)c2)cn1 [Example 153] as the molecule, how does the pIC50 read?
The pIC50 was 7.70.

Tested on: not given
Assay: not given
Details: not given

With Cc1cc(-n2cnc(Cn3ccnc3N)c2)ccc1Cl (as salt: hydrochloride) [Example 105, 1-[1-(4-Chloro-3-methyl-phenyl)-1H-imidazol-4-yl-methyl]-1H-imidazol-2-yl-amine-, Hydrochloride (1:2)] as the molecule, how does the melting point read?
The melting point was 230 to 233 °C.

Which melting point does the source give for CCc1nccn1Cc1cn(-c2cccc(SC(F)(F)F)c2)cn1 (as salt: hydrochloride) [Example 143] here?
The melting point was 234 to 236 °C.

With CCc1nccn1Cc1cn(-c2ccc(F)c(C(C)(F)F)c2)cn1 (as salt: hydrochloride) [Example 151, 1H-Imidazole, 1-[[1-1-[3-(1,1-Difluoroethyl)-4-fluorophenyl]-1H-imidazol-4-yl]methyl]-ethyl-, Hydrochloride (1:2)] as the molecule, how does the melting point read?
The melting point was > 200 °C (dec.).

For CCc1nccn1Cc1cn(-c2cccc(C(C)C)c2)cn1 (as salt: hydrochloride) [Example 153], which melting point is on record?
Its melting point is > 200 °C (dec.).

Which melting point does the source give for Cc1nccn1Cc1cn(-c2ccc3ccccc3c2)cn1 (as salt: hydrochloride) [Example 155, 1H-Imidazole, 2-Methyl-1-[[1-(naphtalen-2-yl)-1H-imidazol-4-yl]methyl]-, Hydrochloride (1:2)] here?
Its melting point is 247 to 248 °C.

For Cc1nccn1Cc1cn(-c2cccc(Cl)c2)cn1 (as salt: hydrochloride) [Example 173], which melting point is on record?
Its melting point is > 200 °C (dec.).

With CCc1nccn1Cc1cn(-c2cc(OC)cc(C(F)(F)F)c2)cn1 (as salt: hydrochloride) [Example 181] as the molecule, how does the melting point read?
The melting point was 245 to 246 °C.

For Cc1nccn1Cc1cn(-c2ccc3ccccc3n2)cn1 (as salt: sodium) [Example 204, 2-[4-(2-Methyl-imidazol-1-ylmethyl)-imidazol-1-yl]-quinoline], which melting point is on record?
The melting point was 160 °C.

With CCc1nccn1Cc1cn(-c2ccc3ccccc3n2)cn1 (as salt: sodium) [Example 205, 2-[4-(2-Ethyl-imidazol-1-ylmethyl)-imidazol-1-yl]-quinoline] as the molecule, how does the melting point read?
Its melting point is > 80 °C (dec.).

For c1ccc2nc(-n3cnc(Cn4ccnc4)c3)ccc2c1 (as salt: sodium) [Example 206, 2-(4-Imidazol-1-ylmethyl-imidazol-1-yl)-quinoline], which melting point is on record?
The melting point was > 150 °C (dec.).

With CCc1nccn1Cc1cn(-c2cnc3ccccc3c2)cn1 (as salt: sodium) [Example 210, 3-[4-(2-Ethyl-imidazol-1-ylmethyl)-imidazol-1-yl]-quinoline] as the molecule, how does the melting point read?
Its melting point is 132 to 136 °C.

Which melting point does the source give for Cc1nccn1Cc1cn(-c2cnc3ccccc3c2)cn1 (as salt: sodium) [Example 211, 3-[4-(2-Methyl-imidazol-1-ylmethyl)-imidazol-1-yl]-quinoline] here?
The melting point was 168 to 172 °C.

With Cc1nccn1Cc1cn(-c2ccc(Cl)cn2)cn1 (as salt: sodium) [Example 212, 5-Chloro-2-[4-(2-methyl-imidazol-1-ylmethyl)-imidazol-1-yl]-pyridine] as the molecule, how does the melting point read?
Its melting point is 192 to 196 °C.

With CCc1nccn1Cc1cn(-c2ccc(Cl)cn2)cn1 (as salt: sodium) [Example 213, 5-Chloro-2-[4-(2-ethyl-imidazol-1-ylmethyl)-imidazol-1-yl]-pyridine] as the molecule, how does the melting point read?
Its melting point is 182 to 185 °C.

With Cc1nccn1Cc1cn(-c2ccc3ncccc3c2)cn1 (as salt: sodium) [Example 220, 6-[4-(2-Methyl-imidazol-1-ylmethyl)-imidazol-1-yl]-quinoline] as the molecule, how does the melting point read?
Its melting point is > 125 °C (dec.).

With CCc1nccn1Cc1cn(-c2ccc3ncccc3c2)cn1 (as salt: sodium) [Example 221, 6-[4-(2-Ethyl-imidazol-1-ylmethyl)-imidazol-1-yl]-quinoline] as the molecule, how does the melting point read?
The melting point was > 79 °C (dec.).

For Cc1nccn1Cc1cn(-c2cccc3cccnc23)cn1 (as salt: sodium) [Example 222, 8-[4-(2-Methyl-imidazol-1-ylmethyl)-imidazol-1-yl]-quinoline], which melting point is on record?
The melting point was 150 to 154 °C.

Which melting point does the source give for CCc1nccn1Cc1cn(-c2cccc3cccnc23)cn1 (as salt: sodium) [Example 223, 8-[4-(2-Ethyl-imidazol-1-ylmethyl)-imidazol-1-yl]-quinoline] here?
Its melting point is 78 to 81 °C.

Which melting point does the source give for CC(=O)Nc1nccn1Cc1cn(-c2ccc(Cl)c(Cl)c2)cn1 [Example 110, N-{1-[1-(3,4-Dichloro-phenyl)-1H-imidazol-4-yl-methyl]-1H-imidazol-2-yl}-acetamide] here?
Its melting point is > 236 °C (dec.).

For Cc1nccn1Cc1cnn(-c2ccc(Cl)c(Cl)c2)c1 [Example 114, 1-(3,4-Dichloro-phenyl)-4-(2-methyl-imidazol-1-yl-methyl)-1H-pyrazole], which melting point is on record?
Its melting point is 176 to 177 °C.
